Laboratory results as given in patent US10399991B2, “Kv1.3 inhibitors and their medical applications” (4SC AG, priority 2015, dated 2019).

The molecules below were run on Peripheral blood mononuclear cells (PBMC) (assay: T cell proliferation assay (anti-CD3 activated PBMC, BrdU based cell proliferation ELISA)). Details: human PBMC, TRAM-34 (5 μM), 50 ng/ml anti-CD3, 48 hours; read-out: IC50(BrdU incorporation).
From the text: T cell proliferation assay (in analogy to Pegoraro et al., Bioorg. Med. Chem. Lett. 2009, 19, 2299)
Peripheral blood mononuclear cells (PBMC) from healthy human donors were isolated by centrifugation over a density gradient in an aqueous solution, comprising a high molecular weight polysaccharide and sodium diatrizionate, and having a density of 1.077±0.001 (Ficoll-Hypaque by Sigma-Aldrich, Germany; according to manufacturer's instructions). Purified PBMC were washed twice with PBS and resuspended in RPMI1640 culture medium (Gibco—Life Technologies) supplemented with 10% heat inactivated fetal calf serum, 1.5 mM L-glutamine, 100 U penicillin/ml, and 100 […] (all from PAA—GE Healthcare). For stimulation, PBMC were seeded at 1×10^5 cells/well, incubated with TRAM-34 (5 μM) and the test compounds for 4 h and activated with 50 ng/ml anti-CD3 (from eBioscience). After 48 hours proliferation was measured using a BrdU based cell proliferation ELISA according to the manual.

SMILES	IC50
Cc1c(-c2cccnc2)c2cc3c(C)coc3c(C)c2[nH]c1=O [Example 54, 3,6,9-trimethyl-5-(pyridin-3-yl)furo[3,2-g]quinolin-7(8H)-one]	3100 to 15000 nM
Cc1csc2c(C)c3oc(=O)cc(-c4ccccc4)c3cc12 [Example 37, 6,9-dimethyl-4-phenyl-2H-thieno[3,2-g]chromen-2-one]	3100 to 15000 nM
Cc1c(-c2ccccc2)c2cc3c(C)csc3c(C)c2oc1=O [Example 43, 3,6,9-trimethyl-4-phenyl-2H-thieno[3,2-g]chromen-2-one]	1300 to 3000 nM
Cc1c(-c2ccccc2Cl)c2cc3c(C)coc3c(C)c2[nH]c1=O [Example 40, 5-(2-chlorophenyl)-3,6,9-trimethylfuro[3,2-g]quinolin-7(8H)-one]	≤ 1200 nM
Cc1c(-c2ccccc2F)c2cc3c(C)coc3c(C)c2[nH]c1=O [Example 30, 5-(2-fluorophenyl)-3,6,9-trimethylfuro[3,2-g]quinolin-7(8H)-one]	1300 to 3000 nM
Cc1c2oc(=O)cc(-c3ccccc3)c2cc2c(C3CC3)coc12 [Example 41, 3-cyclopropyl-9-methyl-5-phenyl-7H-furo[3,2-g]chromen-7-one]	1300 to 3000 nM
Cc1c(-c2ccccc2)c2cc3c(C)coc3nc2n(C)c1=O [Example 49, 3,6,8-trimethyl-5-phenylfuro[2,3-b][1,8]naphthyridin-7(8H)-one]	3100 to 15000 nM
Cc1c(-c2ccccc2)c2cc3c(C)coc3c(C)c2[nH]c1=O [Example 31, 3,6,9-trimethyl-5-phenylfuro[3,2-g]quinolin-7(8H)-one]	≤ 1200 nM
Cc1c(-c2ccccc2)c2cc3c(C)coc3c(C)c2n(C)c1=O [Example 34, 3,6,8,9-tetramethyl-5-phenylfuro[3,2-g]quinolin-7(8H)-one]	1300 to 3000 nM
CCc1coc2c(C)c3oc(=O)c(C)c(-c4ccccc4)c3cc12 [Example 16, 3-ethyl-6,9-dimethyl-5-phenyl-7H-furo[3,2-g]chromen-7-one]	≤ 1200 nM
Cc1c(-c2cccnc2)c2cc3c(C)coc3c(C)c2oc1=O [Example 53, 3,6,9-trimethyl-5-(pyridin-3-yl)-7H-furo[3,2-g]chromen-7-one]	1300 to 3000 nM
Cc1c(-c2ccccc2)c2cc3c(C)coc3c(C)c2oc1=O [Example 9, 3,6,9-trimethyl-5-phenyl-7H-furo[3,2-g]chromen-7-one]	≤ 1200 nM
COc1ccccc1-c1cc(=O)oc2c(C)c3occ(C)c3cc12 [Example 1, 5-(2-methoxyphenyl)-3,9-dimethyl-7H-furo[3,2-g]chromen-7-one]	3100 to 15000 nM
Cc1c(-c2ccccc2)c2cc3c(C)coc3nc2oc1=O [Example 25, 3,6-dimethyl-5-phenyl-7H-furo[2,3-b]pyrano[3,2-e]pyridin-7-one]	1300 to 3000 nM
COc1ccccc1-c1c(C)c(=O)oc2c(C)c3occ(C)c3cc12 [Example 7, 5-(2-methoxyphenyl)-3,6,9-trimethyl-7H-furo[3,2-g]chromen-7-one]	1300 to 3000 nM
CCOc1ccccc1-c1c(C)c(=O)oc2c(C)c3occ(C)c3cc12 [Example 10, 5-(2-ethoxyphenyl)-3,6,9-trimethyl-7H-furo[3,2-g]chromen-7-one]	≤ 1200 nM
Cc1c(-c2ccccc2Cl)c2cc3c(C)coc3c(C)c2oc1=O [Example 11, 5-(2-chlorophenyl)-3,6,9-trimethyl-7H-furo[3,2-g]chromen-7-one]	1300 to 3000 nM

The molecules below were run on female Dark Agouti rats (assay: Pristane-induced Arthritis (PIA) model). Details: 0.05 mg/kg, i.p., sid, from DAY16; maximum AI=16; controls AI around 14.
Format: in vivo, rat
Experimental: Pristane-induced Arthritis (PIA) Model:
Arthritis was induced in female Dark Agouti rats by intradermal injection of 150 μL/rat pristane into the base of the tail on DAY0, according to Vingsbo et al., Am. J. Pathol. 1996, 149, 1675. Compound treatment was started on DAY16 and continued until DAY30, dosing Example 53 at 60 mg/kg, p.o., sid, and Example 34 at 45 mg/kg, p.o., bid, each in a lipophilic formulation. As a positive control, methotrexate (MTX) was dosed i.p., sid, with 0.05 mg/kg, also starting DAY16. Arthritis development was monitored daily by a macroscopic scoring system for the four limbs ranging from 0 to 4 (0=no visible effects of arthritis; 1=edema and/or erythema of one digit; 2=edema and/or erythema of two joints; 3=edema and/or erythema of more than two joints; 4=severe arthritis of the entire paw and digits, associated with ankylosis and deformity of the paw.), resulting in an Arthritic Index (AI) reflecting the sum of scores of all 4 limbs per rat (maximum AI=16).

SMILES	Arthritic Index (AI)
CN(Cc1cnc2nc(N)nc(N)c2n1)c1ccc(C(=O)N[C@@H](CCC(=O)O)C(=O)O)cc1 [MTX, methotrexate, reference compound]	~8.7

Same assay, conditions: 45 mg/kg, p.o., bid, DAY16 to DAY30; maximum AI=16; controls AI around 14

SMILES	Arthritic Index (AI)
Cc1c(-c2ccccc2)c2cc3c(C)coc3c(C)c2n(C)c1=O [Example 34, 3,6,8,9-tetramethyl-5-phenylfuro[3,2-g]quinolin-7(8H)-one]	around 9.1

Same assay, conditions: 60 mg/kg, p.o., sid, DAY16 to DAY30; maximum AI=16; controls AI around 14

SMILES	Arthritic Index (AI)
Cc1c(-c2cccnc2)c2cc3c(C)coc3c(C)c2oc1=O [Example 53, 3,6,9-trimethyl-5-(pyridin-3-yl)-7H-furo[3,2-g]chromen-7-one]	around 10.4

Same assay, conditions: Example 53 60 mg/kg p.o. sid; Example 34 45 mg/kg p.o. bid; DAY16 to DAY30

SMILES	amelioration of arthritis
Cc1c(-c2ccccc2)c2cc3c(C)coc3c(C)c2n(C)c1=O [Example 34, 3,6,8,9-tetramethyl-5-phenylfuro[3,2-g]quinolin-7(8H)-one]	significant amelioration of arthritis
Cc1c(-c2cccnc2)c2cc3c(C)coc3c(C)c2oc1=O [Example 53, 3,6,9-trimethyl-5-(pyridin-3-yl)-7H-furo[3,2-g]chromen-7-one]	significant amelioration of arthritis

What follows are molecules tested against Kv1.3 (Homo sapiens (Human), UniProt P22001) (assay: Patch-clamp assay for inhibitory activity on Kv1.3 (whole cell patch-clamp recording)). Details: n≥2 per concentration.
Kv1.3, sequence (P22001 whole entry): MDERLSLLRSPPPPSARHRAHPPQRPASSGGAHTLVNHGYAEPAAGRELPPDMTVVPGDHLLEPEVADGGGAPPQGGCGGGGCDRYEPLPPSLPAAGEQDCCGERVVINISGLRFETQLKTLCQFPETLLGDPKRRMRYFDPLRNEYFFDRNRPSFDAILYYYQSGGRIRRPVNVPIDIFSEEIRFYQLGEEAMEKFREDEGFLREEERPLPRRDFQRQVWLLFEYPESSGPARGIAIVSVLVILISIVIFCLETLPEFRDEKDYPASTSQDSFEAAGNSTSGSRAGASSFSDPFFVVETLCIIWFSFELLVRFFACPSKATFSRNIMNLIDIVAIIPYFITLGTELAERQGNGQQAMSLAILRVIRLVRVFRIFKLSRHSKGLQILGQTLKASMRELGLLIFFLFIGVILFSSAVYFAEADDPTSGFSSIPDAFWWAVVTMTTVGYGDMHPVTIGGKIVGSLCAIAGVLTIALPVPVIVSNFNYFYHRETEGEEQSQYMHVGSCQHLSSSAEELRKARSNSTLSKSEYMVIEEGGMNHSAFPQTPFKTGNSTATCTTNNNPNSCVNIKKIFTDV
Format: cell-based
Experimental: Patch-Clamp Assay for Inhibitory Activity on Kv1.3
For a description of a Kv1.3 patch-clamp assay, see Grissmer et al., Mol. Pharmacol. 1994, 45, 1227; whole cell patch-clamp recording was performed with n≥2 individual experiments at each compound concentration using different cells. Three or more different concentrations were determined per dose response curve.

SMILES	IC50
Cc1c(-c2cccnc2)c2cc3c(C)coc3c(C)c2[nH]c1=O [Example 54, 3,6,9-trimethyl-5-(pyridin-3-yl)furo[3,2-g]quinolin-7(8H)-one]	≤ 500 nM
Cc1csc2c(C)c3oc(=O)cc(-c4ccccc4)c3cc12 [Example 37, 6,9-dimethyl-4-phenyl-2H-thieno[3,2-g]chromen-2-one]	501 to 1500 nM
Cc1c(-c2ccccc2)c2cc3c(C)csc3c(C)c2oc1=O [Example 43, 3,6,9-trimethyl-4-phenyl-2H-thieno[3,2-g]chromen-2-one]	≤ 500 nM
Cc1c(-c2ccccc2Cl)c2cc3c(C)coc3c(C)c2[nH]c1=O [Example 40, 5-(2-chlorophenyl)-3,6,9-trimethylfuro[3,2-g]quinolin-7(8H)-one]	≤ 500 nM
Cc1c(-c2ccccc2F)c2cc3c(C)coc3c(C)c2[nH]c1=O [Example 30, 5-(2-fluorophenyl)-3,6,9-trimethylfuro[3,2-g]quinolin-7(8H)-one]	≤ 500 nM
Cc1c2oc(=O)cc(-c3ccccc3)c2cc2c(C3CC3)coc12 [Example 41, 3-cyclopropyl-9-methyl-5-phenyl-7H-furo[3,2-g]chromen-7-one]	≤ 500 nM
Cc1c(-c2ccccc2)c2cc3c(C)coc3nc2n(C)c1=O [Example 49, 3,6,8-trimethyl-5-phenylfuro[2,3-b][1,8]naphthyridin-7(8H)-one]	≤ 500 nM
Cc1c(-c2ccccc2)c2cc3c(C)coc3c(C)c2[nH]c1=O [Example 31, 3,6,9-trimethyl-5-phenylfuro[3,2-g]quinolin-7(8H)-one]	≤ 500 nM
Cc1c(-c2ccccc2)c2cc3c(C)coc3c(C)c2n(C)c1=O [Example 34, 3,6,8,9-tetramethyl-5-phenylfuro[3,2-g]quinolin-7(8H)-one]	≤ 500 nM
CCc1coc2c(C)c3oc(=O)c(C)c(-c4ccccc4)c3cc12 [Example 16, 3-ethyl-6,9-dimethyl-5-phenyl-7H-furo[3,2-g]chromen-7-one]	≤ 500 nM
Cc1c(-c2cccnc2)c2cc3c(C)coc3c(C)c2oc1=O [Example 53, 3,6,9-trimethyl-5-(pyridin-3-yl)-7H-furo[3,2-g]chromen-7-one]	≤ 500 nM
Cc1c(-c2ccccc2)c2cc3c(C)coc3c(C)c2oc1=O [Example 9, 3,6,9-trimethyl-5-phenyl-7H-furo[3,2-g]chromen-7-one]	≤ 500 nM
COc1ccccc1-c1cc(=O)oc2c(C)c3occ(C)c3cc12 [Example 1, 5-(2-methoxyphenyl)-3,9-dimethyl-7H-furo[3,2-g]chromen-7-one]	≤ 500 nM
Cc1c(-c2ccccc2)c2cc3c(C)coc3nc2oc1=O [Example 25, 3,6-dimethyl-5-phenyl-7H-furo[2,3-b]pyrano[3,2-e]pyridin-7-one]	≤ 500 nM
COc1ccccc1-c1c(C)c(=O)oc2c(C)c3occ(C)c3cc12 [Example 7, 5-(2-methoxyphenyl)-3,6,9-trimethyl-7H-furo[3,2-g]chromen-7-one]	≤ 500 nM
CCOc1ccccc1-c1c(C)c(=O)oc2c(C)c3occ(C)c3cc12 [Example 10, 5-(2-ethoxyphenyl)-3,6,9-trimethyl-7H-furo[3,2-g]chromen-7-one]	≤ 500 nM
Cc1c(-c2ccccc2Cl)c2cc3c(C)coc3c(C)c2oc1=O [Example 11, 5-(2-chlorophenyl)-3,6,9-trimethyl-7H-furo[3,2-g]chromen-7-one]	≤ 500 nM
